Assay results published in paper PMC8929329, “The pharmaceutical excipient PEG400 affect the absorption of baicalein in Caco‐2 monolayer model by interacting with UDP‐glucuronosyltransferases and efflux transport proteins” (Pharmacology Research & Perspectives, 2022).

Assays:
Stability study in HBSS = format: physicochemical; settings: 37°C, 2 h
Method: The test was carried out by measuring the content of B, BG, and B6G before and after keeping in the HBSS solution at 37°C for 2 h. The time interval was selected according to the permeation experiment. The differences between the contents of the three samples before or after the incubation were calculated and expressed as the percentage of B, BG, and B6G remaining.

[1] = design: method as in doi:10.2174/1573412916666200206141439; settings: effect of PEG400; cited from earlier work
Caco-2 cell monolayer = experiment: Permeation experiments on Caco-2 cell monolayer (two-way transport); format: in vitro ADME, human; settings: for P appAL-BL / P appBL-AL: 5 μM in supply chamber; for permeation within 2 h compared with the control group: AL-BL experiment, baicalein 10 μM loaded with 0.5% (v/v) PEG400; for penetration within 2 h compared with the control group: BL-AP experiment, baicalein 10 μM loaded with 0.5% (v/v) PEG
Method: (§1) Cell culture was performed as previously described.[15] For transport experiments, Caco-2 cells from passage number 20-30 were seeded at a density of 2 × 10^5 cells per well on transwell plate (a solid insert for cell culture contains porous permeable polycarbonate membrane) with polycarbonate membranes using a blood-counting chamber (QIU JING®). A 0.5 ml of culture medium with cells was added to the apical side (AP) and 1.5 ml of blank culture medium was added to the basolateral side (BL). During the incubation period, the medium on the AP and BL sides were changed every 2 days in the first week, and every day after a week until the 21st day. The permeation of samples was assessed in both directions at different concentrations. This experiment assessed the influence of different concentrations (%, v/v) of PEG400 on the permeation process of B, BG, and […]. […] Caco-2 cell monolayers with qualified monolayer membrane integrity were used for drug permeability experiments. Aspirated and discarded the original culture medium in the transwell plate, added pre-warmed (37°C) HBSS to wash 3 times, put it in the incubator for the last time and incubated for 30 min. […] For the AP-BL permeability (absorptive transport study), add 0.5 ml of samples (dissolved in HBSS) to the apical side (AP) as a supply chamber, and add 1.5 ml of pre-warmed HBSS to the basolateral side (BL) as a receiving chamber. Alternatively, in the permeation direction of BL-AP compartment (secretive transport study), add 1.5 ml of samples (dissolved in HBSS) to the BL side as a supply chamber, and add 0.5 ml of pre-warmed HBSS to the AP side as a receiving chamber. After the above steps, put the transwell plate on the thermostatic oscillator (Changzhou Wanhe Instrument Manufacturing Co., Ltd.) at 60 r/min. And sample 100 μl from the receiving pool or 10 μl from the supply chamber at 30, 60, 90, and 120 min depending on the experiment, and make up the same volume of blank pre-warmed HBSS. The sample taken from the transwell plate was precipitated with the 100 μl of methanol to precipitate the protein. After centrifugation at 16 000g for 15 min at 4°C, 70 μl of the supernatant was taken. And the content was determined by UPLC-MS/MS method to calculate the apparent permeability coefficient (P app) and efflux ratio (ER). The P app and ER of Caco-2 monolayers was measured and calculated as Equations ((2), (3), (4)): (2) Papp=dQ/dt/AC0 Where ΔQ/Δt (ng/ml·s) is the rate of permeability (ng/ml·s for B, BG, […]); A is for the membrane area (1.12 cm^2); C 0 (ng/ml/for B, BG, […]) is the initial concentration of the sample in the supply chamber. The apparent permeability might need to be corrected because of the effect of the marked amount of baicalein glucuronide.[17] Thus, the corrected permeability was calculated from the total rate of drug transport and the glucuronide excretion rate of bidirectional side divided by the membrane area (A) of the monolayer and the initial concentration of baicalein at the loading side (C 0): (3) Pcorrected=dQ/dt+Aex+Bex/AC0 (4) […] - BL Where P appBL-AP is the apparent permeability coefficient when the sample is added on the basolateral side; […]-BL is the apparent permeability coefficient when the sample is added on the apical side.

MRP2 = experiment: as above; format: in vitro ADME, human; settings: human, Caco-2, with MK-571 10 µM, 5 + 10 µM MK571 (MRP inhibitor); for efflux ratio at 120 min, 5 µM: read-out: ER (P BL-AP)/(P AP-BL); for Papp A→B at 120 min, 5 µM: read-out: P app Absorptive (AP-BL); for Papp B→A at 120 min, 5 µM: read-out: P app Secretory (BL-AP)
Method: as §1

P-gp = experiment: as above; format: in vitro ADME, human; settings: human, Caco-2, with verapamil 10 µM, 5 + 10 µM Ver (P-GP inhibitor); for efflux ratio at 120 min, 5 µM: read-out: ER (P BL-AP)/(P AP-BL)
Method: as §1

BCRP = experiment: as above; format: in vitro ADME, human; settings: human, Caco-2, with KO143 10 µM (BCRP inhibitor), 5 + 10 µM KO143 (BCRP inhibitor); for efflux ratio at 120 min, 5 µM: read-out: ER (P BL-AP)/(P AP-BL); for Papp A→B at 120 min, 5 µM: read-out: P app Absorptive (AP-BL); for Papp B→A at 120 min, 5 µM: read-out: P app Secretory (BL-AP)
Method: as §1

[2] = as above; format: in vitro ADME, human; settings: human, Caco-2, 5 µM; for efflux ratio at 120 min, 5 µM: read-out: ER (P BL-AP)/(P AP-BL); for Papp A→B at 120 min, 5 µM: read-out: P app Absorptive (AP-BL); for Papp B→A at 120 min, 5 µM: read-out: P app Secretory (BL-AP)
Method: as §1

Row | Compound | Stability (percentage remaining) (Stability study in HBSS; 150 ng ml^−1) [%] | Stability (percentage remaining) (Stability study in HBSS; 300 ng ml^−1) [%] | Stability (percentage remaining) (Stability study in HBSS; 600 ng ml^−1) [%] | AUC0-t in plasma [1] | C max in plasma [1] | ER (P BL-AP)/(P AP-BL) (Caco-2 cell monolayer; 5 µM + 0.25%PEG400) | P app Absorptive (AP-BL) (Caco-2 cell monolayer; 5 µM + 0.25%PEG400) | P app Secretory (BL-AP) (Caco-2 cell monolayer; 5 µM + 0.25%PEG400) | ER (P BL-AP)/(P AP-BL) (Caco-2 cell monolayer; 5 µM + 0.5%PEG400) | P app Absorptive (AP-BL) (Caco-2 cell monolayer; 5 µM + 0.5%PEG400) | P app Secretory (BL-AP) (Caco-2 cell monolayer; 5 µM + 0.5%PEG400) | ER (P BL-AP)/(P AP-BL) (Caco-2 cell monolayer; 5 µM + 1%PEG400) | P app Absorptive (AP-BL) (Caco-2 cell monolayer; 5 µM + 1%PEG400) | P app Secretory (BL-AP) (Caco-2 cell monolayer; 5 µM + 1%PEG400) | P appAL-BL (Caco-2 cell monolayer) [×10⁻⁶ cm/s] | P appBL-AL (Caco-2 cell monolayer) [×10⁻⁶ cm/s] | permeation within 2 h compared with the control group (Caco-2 cell monolayer) | penetration within 2 h compared with the control group (Caco-2 cell monolayer) | efflux ratio at 120 min, 5 µM (MRP2) | Papp A→B at 120 min, 5 µM (MRP2) [×10⁻⁶ cm/s] | also measured
1 | O=C(O)[C@H]1O[C@@H](Oc2c(O)cc3oc(-c4ccccc4)cc(=O)c3c2O)[C@H](O)[C@@H](O)[C@@H]1O [B6G, baicalein‐6‐O‐β‐D‐glucuronide] | 98.71 ± 6.52 | 99.36 ± 6.23 | 94.32 ± 5.33 | significantly increased | significantly increased | 0.93 | 6.74 ± 0.22 1 × 10^−6 cm·s^−1 | 6.3 ± 0.98 1 × 10^−6 cm·s^−1 | 0.71 | 6.15 ± 0.17 ^* 1 × 10^−6 cm·s^−1 | 4.39 ± 0.31 ^* 1 × 10^−6 cm·s^−1 | 0.56 | 7.53 ± 0.48 ^* 1 × 10^−6 cm·s^−1 | 4.24 ± 0.25 ^** 1 × 10^−6 cm·s^−1 | 6.38 ± 0.26 | 6.35 ± 0.55 | significantly increased | did not show a significant difference | 0.65 | 6.91 ± 0.23 | ER (P BL-AP)/(P AP-BL) (Caco-2 cell monolayer; 5 µM): 1.01; P app Absorptive (AP-BL) (Caco-2 cell monolayer; 5 + 10 µM Ver (P-GP inhibitor)): 6.37 ± 0.15 1 × 10^−6 cm·s^−1; P app Secretory (BL-AP) (Caco-2 cell monolayer; 5 + 10 µM Ver (P-GP inhibitor)): 6.26 ± 0.2 1 × 10^−6 cm·s^−1; Papp B→A at 120 min, 5 µM (MRP2): 4.56 ± 0.21 ×10⁻⁶ cm/s; efflux ratio at 120 min, 5 µM (P-gp): 0.98; efflux ratio at 120 min, 5 µM (BCRP): 0.71; Papp A→B at 120 min, 5 µM (BCRP): 6.68 ± 0.06 ×10⁻⁶ cm/s; Papp B→A at 120 min, 5 µM (BCRP): 4.77 ± 0.09 ×10⁻⁶ cm/s; efflux ratio at 120 min, 5 µM [2]: 1.1; Papp A→B at 120 min, 5 µM [2]: 6.38 ± 0.26 ×10⁻⁶ cm/s; Papp B→A at 120 min, 5 µM [2]: 6.35 ± 0.55 ×10⁻⁶ cm/s
2 | O=C(O)[C@H]1O[C@@H](Oc2cc3oc(-c4ccccc4)cc(=O)c3c(O)c2O)[C@H](O)[C@@H](O)[C@@H]1O [BG, baicalein‐7‐O‐β‐D‐glucuronide] | 93.35 ± 8.25 | 99.20 ± 2.56 | 100.61 ± 4.92 | significantly increased | significantly increased | 1.03 | 9.91 ± 0.21 ^** 1 × 10^−6 cm·s^−1 | 10.24 ± 0.95 1 × 10^−6 cm·s^−1 | 0.65 | 15.98 ± 0.11 ^** 1 × 10^−6 cm·s^−1 | 10.36 ± 0.05 1 × 10^−6 cm·s^−1 | 0.57 | 14.37 ± 0.99 ^** 1 × 10^−6 cm·s^−1 | 8.24 ± 0.07 ^** 1 × 10^−6 cm·s^−1 | 6.52 ± 0.28 | 10.23 ± 0.37 | significantly increased | did not show a significant difference | 0.86 | 13.2 ± 1.22 | Papp B→A at 120 min, 5 µM (MRP2): 11.4 ± 0.56 ×10⁻⁶ cm/s; efflux ratio at 120 min, 5 µM (P-gp): 1.65; Papp A→B at 120 min, 5 µM (P-gp; read-out: P app Absorptive (AP-BL)): 6.37 ± 0.53 ×10⁻⁶ cm/s; Papp B→A at 120 min, 5 µM (P-gp; read-out: P app Secretory (BL-AP)): 10.5 ± 0.14 ×10⁻⁶ cm/s; efflux ratio at 120 min, 5 µM (BCRP): 0.62; Papp A→B at 120 min, 5 µM (BCRP): 10.9 ± 0.4 ×10⁻⁶ cm/s; Papp B→A at 120 min, 5 µM (BCRP): 7.31 ± 0.9 ×10⁻⁶ cm/s; efflux ratio at 120 min, 5 µM [2]: 1.57; Papp A→B at 120 min, 5 µM [2]: 6.52 ± 0.28 ×10⁻⁶ cm/s; Papp B→A at 120 min, 5 µM [2]: 10.2 ± 0.37 ×10⁻⁶ cm/s
